Test results as given in US8952183B2, “Inhibitors of sialidase or sialidase-like enzymes” (priority 2009, dated 2015).

How the values were obtained:
[1] = test system: bacterial or mammalian neuraminidases; conditions: Colman, 1999; cited from earlier work
influenza neuraminidases = conditions: Colman, 1999; cited from earlier work
[2] = target: influenza A neuraminidase (N1) (Influenza A virus, UniProt P03468); type: biochemical
Sequence of influenza A neuraminidase (N1) (P03468 whole entry): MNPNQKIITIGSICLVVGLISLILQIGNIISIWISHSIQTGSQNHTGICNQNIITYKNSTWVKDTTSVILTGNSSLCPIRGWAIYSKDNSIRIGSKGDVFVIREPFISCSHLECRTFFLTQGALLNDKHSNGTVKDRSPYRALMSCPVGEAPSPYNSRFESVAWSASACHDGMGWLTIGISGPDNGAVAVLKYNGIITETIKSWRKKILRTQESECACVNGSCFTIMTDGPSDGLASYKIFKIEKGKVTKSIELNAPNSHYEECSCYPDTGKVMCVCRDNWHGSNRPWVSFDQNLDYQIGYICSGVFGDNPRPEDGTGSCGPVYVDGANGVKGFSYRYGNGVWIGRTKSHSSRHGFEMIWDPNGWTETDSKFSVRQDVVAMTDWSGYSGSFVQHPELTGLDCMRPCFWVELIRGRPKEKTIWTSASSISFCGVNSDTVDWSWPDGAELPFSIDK

SMILES | potency against bacterial or mammalian neuraminidases [1] | potency against influenza neuraminidases (influenza neuraminidases) | potency as inhibitor compared with ATA [2]
CC(=O)N[C@H]1[C@H]([C@H](O)[C@H](O)CO)OC(C(=O)O)=C[C@@H]1N=C(N)N [zanamivir] | much less potent | very potent | –
CC(=N)N[C@H]1[C@H]([C@H](NC(C)=O)[C@@H](C)O)OC(C(=O)O)=C[C@@H]1O [Compound 8, 5-acetamidino-7-acetamido-3,5,7,9-tetradeoxy-D-glycero-D-galacto-non-2-enonate] | – | – | not as potent an inhibitor as Aurintricarboxylic acid (ATA)
